Source: patent publication EP0378320A2, “Microbial transformation product” (Merck & Co., Inc., priority 1989, dated 1990)

Test system: mouse T lymphocytes
Assay: T-cell proliferation assay (ionomycin plus PMA induced T-cell stimulation, tritiated thymidine uptake)
Assay type: cell-based
Conditions: T-lymphocyte, standard at 10 ng/ml
Experimental: The principle of this assay is to measure the proliferation of mouse T lymphocytes stimulated with the combination of ionomycin plus PMA. A positive sample in this assay will inhibit T-cell proliferation, as indicated by reduced tritiated thymidine uptake.
Purified L-683,756, as prepared by HPLC above, was dissolved in absolute ethanol at 1 mg/ml.
Spleens from C57B1/6 mice were taken under sterile conditions and gently dissociated in ice-cold RPMI 1640 culture medium (GIBCO, Grand Island, N.Y.) supplemented with 10% heat-inactivated fetal calf serum (GIBCO). Cells were pelleted by centrifugation at 1500 rpm for 8 minutes. […]
Purified T lymphocytes were resuspended at 2.5 x 10⁵ cells/ml in complete culture medium composed of RPMI 1640 medium with 10% heat-inactivated fetal calf serum, […] glutamine, 1 mM sodium pyruvate, 2 x 10⁻⁵ M 2-mercaptoethanol and 50 µg/ml gentamycin. […] The proliferation of T lymphocytes was assessed by measurement of tritiated thymidine incorporation. […] Radioactivity of filter discs corresponding to individual wells was measured by standard liquid scintillation counting methods (Betacounter). Mean counts per minute of replicate wells were calculated and the results expressed as percent inhibition of tritiated thymidine uptake (proliferation) as follows: [formula]

SMILES: CC[C@@H]1/C=C(\C)C[C@H](C)C[C@H](OC)[C@H]2O[C@@](O)(C(=O)C(=O)N3CCCC[C@H]3C(=O)O[C@H](/C(C)=C/[C@@H]3CC[C@@H](O)[C@H](OC)C3)[C@H](C)[C@@H](O)CC1=O)[C@H](C)C[C@@H]2OC [L-683,590]
- inhibition at 0.01 µg/mL: 99%
